Measurements as given in PMC8857812 (BMC Complementary Medicine and Therapies, 2022).

Experiments:
Assay type in all cases: in vitro ADME
[1] = molecular target: T1, CYP3A4 (Homo sapiens, UniProt P08684); experiment: Time-dependent inhibition and inactivation kinetics of CYP3A4 in HLMs
T1 construct: tissue PrimeTox M10000.201800; host or cells: pooled human liver microsomes (50 donors)
Method: (§1) After the first incubation, an aliquot (20 μL) was transferred to another incubation tube, added probe substrates and start the reaction by an NADPH-generating system. After incubation for 0, 5, 10, 15, and 30 min, the corresponding metabolites were determined by HPLC-MS.
CYPs time-dependent inhibition: Kobs=KinactI/KI+I

[2] = molecular target: T2, CYP2C19 (Homo sapiens, UniProt P33261); experiment: Inhibition kinetics of CYP2C19 in HLMs (Lineweaver-Burk plots)
T2 construct: tissue PrimeTox M10000.201800; host or cells: pooled human liver microsomes (50 donors)
T2 sequence (P33261 whole entry): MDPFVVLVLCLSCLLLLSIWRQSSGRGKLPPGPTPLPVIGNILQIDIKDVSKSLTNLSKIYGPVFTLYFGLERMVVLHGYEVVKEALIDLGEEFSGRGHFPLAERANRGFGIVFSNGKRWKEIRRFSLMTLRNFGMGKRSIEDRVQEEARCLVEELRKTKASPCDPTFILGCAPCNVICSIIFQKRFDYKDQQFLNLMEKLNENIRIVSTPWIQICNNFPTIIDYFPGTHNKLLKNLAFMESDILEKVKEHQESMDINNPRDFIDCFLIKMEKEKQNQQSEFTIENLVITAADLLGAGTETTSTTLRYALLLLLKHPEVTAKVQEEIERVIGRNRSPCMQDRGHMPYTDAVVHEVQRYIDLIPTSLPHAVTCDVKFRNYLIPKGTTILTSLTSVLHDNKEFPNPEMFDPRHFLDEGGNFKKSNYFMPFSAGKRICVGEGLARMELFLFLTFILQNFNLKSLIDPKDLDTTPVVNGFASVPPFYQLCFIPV
Description: (§2) A one enzyme Michaelis Menten model with competitive substrate inhibition: V=VmaxS/Km1+I/KI+Sa
(§3) Michaelis-Menten model with uncompetitive substrate inhibition: V=VmaxS/Km+S1+I/KIKi

[3] = molecular target: T3, CYP2E1 (Homo sapiens, UniProt P05181); experiment: Inhibition kinetics of CYP2E1 in HLMs (Lineweaver-Burk plots)
T3 construct: tissue PrimeTox M10000.201800; host or cells: pooled human liver microsomes (50 donors)
T3 sequence (P05181 whole entry): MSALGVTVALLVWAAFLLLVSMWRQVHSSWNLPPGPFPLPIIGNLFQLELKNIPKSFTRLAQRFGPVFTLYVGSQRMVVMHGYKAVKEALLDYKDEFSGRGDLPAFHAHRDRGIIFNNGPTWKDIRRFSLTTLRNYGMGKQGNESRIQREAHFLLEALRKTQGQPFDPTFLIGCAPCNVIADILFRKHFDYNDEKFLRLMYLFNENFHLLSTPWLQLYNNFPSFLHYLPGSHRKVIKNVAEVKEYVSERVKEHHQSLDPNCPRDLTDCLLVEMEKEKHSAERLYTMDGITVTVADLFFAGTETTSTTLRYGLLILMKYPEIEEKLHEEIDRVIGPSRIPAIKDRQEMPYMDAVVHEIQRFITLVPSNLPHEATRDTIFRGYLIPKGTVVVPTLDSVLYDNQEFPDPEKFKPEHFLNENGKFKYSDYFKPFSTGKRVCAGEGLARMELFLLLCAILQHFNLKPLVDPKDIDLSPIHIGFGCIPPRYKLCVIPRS
Description: as §2, §3

[4] = molecular target: T3, CYP2E1; experiment: CYP2E1 inhibition in HLMs, chlorzoxazone 6-hydroxylation probe reaction; details: 100 μM ECH, p < 0.001 vs Control
Method: (§4) Eight positive controls were used for different CYPs: 10 μM furafylline for CYP1A2, 50 μM clomethiazole for CYP2E1, 50 μM tranylcypromine for CYP2C19, 1 μM ketoconazole for CYP3A4, 10 μM tranylcypromine for CYP2A6, 5 μM montelukast for CYP2C8, 10 μM sulfaphenazole for CYP2C9, and 10 μM quinidine for CYP2D6. […] The reaction was initiated by adding a newly prepared NADPH generating system, maintained at 37 °C for 30 min, and then terminated by the addition of acetonitrile. The incubation conditions were optimized to assure that the reaction was linear with time and protein concentration. Blank HLMs were incubated as Control. The supernatant was obtained after centrifugation at 14000 r/min, 15 min for LC-MS analysis.
(§5) The quantification for the corresponding metabolites was performed using a validated single LC/MS/MS run at an Ultimate 3000 HPLC system and a TSQ Quantis™ triple quadrupole mass spectrometer equipped with a heated electrospray ionization (ESI) source (Thermo Fisher, USA). […]
(§6) The relative enzyme activity was observed by High-Performance Liquid Chromatography (HPLC)-Mass Spectrometry (MS). IC50 values were calculated by Graphpad Prism 7.

[5] = molecular target: T4, CYP2D6 (Homo sapiens, UniProt P10635); experiment: CYP2D6 inhibition in HLMs, dextromethorphan O-demethylation probe reaction; details: HLM; even in 100 μM concentrations
T4 construct: Phenotyping experiments were conducted by probe reactions of eight HLMs CYPs; tissue PrimeTox M10000.201800; host or cells: pooled human liver microsomes (50 donors)
T4 sequence (P10635 whole entry): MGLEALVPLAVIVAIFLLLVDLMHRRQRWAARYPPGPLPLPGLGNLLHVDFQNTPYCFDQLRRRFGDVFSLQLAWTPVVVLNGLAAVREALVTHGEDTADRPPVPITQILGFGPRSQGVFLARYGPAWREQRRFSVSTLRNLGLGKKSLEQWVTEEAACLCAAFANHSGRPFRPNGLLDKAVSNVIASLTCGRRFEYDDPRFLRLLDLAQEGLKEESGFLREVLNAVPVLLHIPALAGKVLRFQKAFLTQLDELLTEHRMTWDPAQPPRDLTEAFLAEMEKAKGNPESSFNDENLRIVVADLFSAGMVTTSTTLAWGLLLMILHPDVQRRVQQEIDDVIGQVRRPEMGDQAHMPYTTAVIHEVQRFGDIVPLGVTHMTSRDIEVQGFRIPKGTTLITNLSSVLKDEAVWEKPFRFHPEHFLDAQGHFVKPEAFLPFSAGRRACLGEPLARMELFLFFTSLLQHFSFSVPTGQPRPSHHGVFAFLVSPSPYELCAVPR
Method: as §4
(§7) The quantification for the corresponding metabolites was performed using a validated single LC/MS/MS run at an Ultimate 3000 HPLC system and a TSQ Quantis™ triple quadrupole mass spectrometer equipped with a heated electrospray ionization (ESI) source (Thermo Fisher, USA). The mobile phase was consisted of solvent A (0.01% acetic acid and 5 mmol/L ammonium acetate) and solvent B (methanol-acetonitrile,1:1, v/v) according to the following gradient: 0-0.5 min, B 2%; 0.5-4.0 min, B 2 to 45%; 4.0-6.5 min, B 45 to 60%; 6.5-6.8 min, B 60 to 80%; 6.8-7.2 min, B 80%; 7.2-7.5 min, B 80 to 2%; 7.5-10.0 min, B 2%. […]

[6] = molecular target: T5, CYP2C9 (Homo sapiens, UniProt P11712); experiment: CYP2C9 inhibition in HLMs, diclofenac 4′-hydroxylation probe reaction; details: HLM; even in 100 μM concentrations
T5 construct: Phenotyping experiments were conducted by probe reactions of eight HLMs CYPs; tissue PrimeTox M10000.201800; host or cells: pooled human liver microsomes (50 donors)
T5 sequence (P11712 whole entry): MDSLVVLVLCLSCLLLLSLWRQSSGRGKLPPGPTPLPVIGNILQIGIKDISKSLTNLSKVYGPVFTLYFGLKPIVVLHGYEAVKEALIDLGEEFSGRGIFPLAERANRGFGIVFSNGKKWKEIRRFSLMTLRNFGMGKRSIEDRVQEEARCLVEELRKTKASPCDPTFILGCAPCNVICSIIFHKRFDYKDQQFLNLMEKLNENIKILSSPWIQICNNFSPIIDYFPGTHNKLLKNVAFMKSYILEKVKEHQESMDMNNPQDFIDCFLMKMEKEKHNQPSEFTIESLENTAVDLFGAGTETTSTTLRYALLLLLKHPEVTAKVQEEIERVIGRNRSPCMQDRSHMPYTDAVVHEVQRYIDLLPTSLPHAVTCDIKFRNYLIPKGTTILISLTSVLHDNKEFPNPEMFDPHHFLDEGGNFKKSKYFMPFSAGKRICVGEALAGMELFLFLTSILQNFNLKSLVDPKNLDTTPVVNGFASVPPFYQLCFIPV
Method: as §4, §7

[7] = molecular target: T2, CYP2C19; experiment: Assessment of time-dependent inhibition of CYP2C19 in HLMs; details: 10 μM ECH; incubation 0-30 min
Method: as §1

[8] = molecular target: T1, CYP3A4; experiment: CYP3A4 inhibition in HLMs, testosterone 6β-hydroxylation probe reaction; details: 100 μM ECH, p < 0.001 vs Control
Method: as §4, §5, §6

[9] = molecular target: T6, CYP2A6 (Homo sapiens, UniProt P11509); experiment: CYP2A6 inhibition in HLMs, coumarin 7-hydroxylation probe reaction; details: HLM; even in 100 μM concentrations
T6 construct: tissue PrimeTox M10000.201800; host or cells: pooled human liver microsomes (50 donors)
T6 sequence (P11509 whole entry): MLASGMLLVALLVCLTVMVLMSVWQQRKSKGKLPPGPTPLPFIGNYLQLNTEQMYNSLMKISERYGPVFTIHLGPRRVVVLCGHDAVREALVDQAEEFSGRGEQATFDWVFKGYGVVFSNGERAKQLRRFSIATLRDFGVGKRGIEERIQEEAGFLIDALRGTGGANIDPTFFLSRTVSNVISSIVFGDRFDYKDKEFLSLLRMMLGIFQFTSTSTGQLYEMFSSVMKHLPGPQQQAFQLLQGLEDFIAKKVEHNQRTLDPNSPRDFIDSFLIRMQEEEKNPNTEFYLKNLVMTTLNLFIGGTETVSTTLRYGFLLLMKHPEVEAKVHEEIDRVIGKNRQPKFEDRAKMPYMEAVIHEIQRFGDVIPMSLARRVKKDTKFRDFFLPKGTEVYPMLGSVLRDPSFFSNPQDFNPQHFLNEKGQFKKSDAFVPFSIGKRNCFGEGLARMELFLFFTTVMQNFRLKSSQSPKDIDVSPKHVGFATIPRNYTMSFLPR
Method: as §4, §7

[10] = molecular target: T3, CYP2E1; experiment: Assessment of time-dependent inhibition of CYP2E1 in HLMs; details: 20 μM ECH; incubation 0-30 min
Method: as §1

[11] = molecular target: T2, CYP2C19; experiment: CYP2C19 inhibition in HLMs, S-mephenytoin 4-hydroxylation probe reaction; details: 100 μM ECH, p < 0.001 vs Control
Method: as §4, §5, §6

[12] = pre-incubation 0-30 min, ECH 0-50 μM, estimated from curve fitting of Kobs

T1 sequence (P08684 whole entry): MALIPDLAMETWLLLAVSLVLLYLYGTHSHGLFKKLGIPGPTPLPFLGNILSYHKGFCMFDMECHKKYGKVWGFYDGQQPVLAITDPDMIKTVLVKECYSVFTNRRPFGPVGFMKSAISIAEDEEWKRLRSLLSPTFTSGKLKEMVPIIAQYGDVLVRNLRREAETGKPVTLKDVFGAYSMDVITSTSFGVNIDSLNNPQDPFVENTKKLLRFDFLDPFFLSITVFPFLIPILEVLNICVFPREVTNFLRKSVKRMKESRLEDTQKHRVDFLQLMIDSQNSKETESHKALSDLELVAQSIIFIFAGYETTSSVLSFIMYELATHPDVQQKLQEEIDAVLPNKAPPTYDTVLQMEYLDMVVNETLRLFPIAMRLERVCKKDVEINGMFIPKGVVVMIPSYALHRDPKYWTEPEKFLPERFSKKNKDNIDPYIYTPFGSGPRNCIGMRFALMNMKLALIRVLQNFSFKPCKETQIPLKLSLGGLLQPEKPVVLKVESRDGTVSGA

Echinacoside
time dependence of CYP3A4 inhibition ([1]; 50 μM ECH, incubation 0-30 min): time-dependent
KI (time-dependent inhibition of CYP3A4) [1, 12]: 6.63 µM
Kinact (time-dependent inhibition of CYP3A4) [1, 12]: 0.066 min^− 1
mode of inhibition of CYP2C19 [2]: competitive type
α value for CYP2E1 [3]: not 1
mode of inhibition of CYP2E1 ([3]; Lineweaver-Burk plots): mixed type
effect on relative activity of CYP2E1 [4]: significant decrease
inhibition of CYP2D6 [5]: no significant inhibition
inhibition of CYP2C9 [6]: no significant inhibition
time dependence of CYP2C19 inhibition [7]: time-independent
effect on relative activity of CYP3A4 [8]: significant decrease
inhibition of CYP2A6 [9]: no significant inhibition
time dependence of CYP2E1 inhibition [10]: time-independent
effect on relative activity of CYP2C19 [11]: significant decrease
